Patent publication US7229826B2, “Process for ex vivo formation of mammalian bone and uses thereof” (The Regents of the University of Michigan, priority 1999, dated 2007)
Entries after “also recorded” stand apart in the source; their conditions may differ.

Tests used:
Type in all cases: cell-based
[1] = test system: human osteogenic cells (MG63, HBPC, primary osteoblasts); assay: Inhibition of cell condensation (bone cell spheroid and microspicule formation); conditions: EGTA 0.5 mM; puromycin 5 μM; spheroid-forming conditions with TGF-β1
Method: Inhibition of Cell Condensation. Cells were cultured in serum-free media under conditions that establish bone cell spheroids (as described above) in the presence of neutralizing antibodies to α2, α3, and/or β1 integrins, at 10 μg/ml. Isotype-specific inappropriate antibodies served as negative controls. Antibodies were added every second day over a seven-day culture period. EGTA (0.5 mM) was also used inhibition of cell aggregation, as was puromycin (5 μM).

[2] = test system: murine LTBMC (unfractionated bone marrow); assay: Murine long-term bone marrow culture (LTBMC) osteogenesis, von Kossa / Masson positive foci and microspicules
Source text: The inventors therefore established murine LTBMC and probed their capacity to express markers of osteogenesis. […] Additionally, they have developed a smaller culture volume system (dropping from 100 -mm tissue culture dishes to 35 mm ones) to allow better utilization of human osteoblasts. Using this modification on murine cells (which respond less robustly to TGF-β as a solitary cytokine), the inventors examined the role of IGF in modulating this process.
Endothelial cells are important sources of cytokines for both hematopoietic and osteogenesis cells. An important regulator of endothelial cells, VEGF, is known to affect both endothelial cells, and bone cell development (although it is not clear if the latter is a direct effect).

[3] = test system: human osteogenic cells (MG63, HBPC, primary osteoblasts); assay: TGF-β1-induced bone cell spheroid formation in serum-free culture; conditions: 200 pM TGF-β1, serum-free, immediately following trypsinization
Method: Culture of Osteogenic Cells and Cell Lines. Osteogenic cell lines such as human osteosarcoma cells (MG63) were cultured in RPMI 1640 (Gibco, Grand Island. N.Y.) containing 2 mM L-Glutamine, sodium pyruvate and 10% Fetal Calf Serun (FCS) (Hyclone Labs Inc., Logan, Utah). For bone cell spheroid formation, cells were grown to confluency, trypsinized, washed two times in RPMI, and immediately cultured in serum-free media containing 1% ITS+ (Collaborative Research Inc.) and 200 pM TGF-β1 (Collaborative). Unless otherwise noted, cells are plated at a density of about 10^3 to 10^6 cells/cm^2 in tissue culture dishes. Control cells were allowed to adhere to plastic for 3–4 hours in serum containing medium following trypsinization. This adherent cell layer was then washed twice with serum-free medium and cultured as above with or without TGF-β1.
Bone Cell-Spheroid Formation. In order to induce three-dimensional cell development (i.e., bone cell spheroids), cells were trypsinized as routinely performed for passage, the trypsin inactivated by serum addition, the cells washed three times, and immediately cultures in RPMI/ITS^+ (see above) containing 200 pM TGF-β1, Control cells were allowed to adhere to plastic for 3–4 hours in serum containing medium following trypsinization. This adherent cell layer was then washed twice with serum-free medium and cultured as above with or without TGF-β1.

[4] = test system: primary osteoblasts isolated from human bone; assay: Collagen synthesis by 3H-proline incorporation, delayed reduction electrophoresis; conditions: densitometry
Method: Collagen Synthesis. At the times indicated, bone cell-spheroids were washed with prolene-free DMEM containing 1% ITS, and incubated for 12 hours in the presence of ITS^+ and 100 μCi/ml (^3H) Proline (Amersham). Cells and medium were harvested, and cell lysates were made. Protein content was estimated by the BCA method (Smith, 1985), using a kit from Pierce (Rockford, Ill.). The cell lysates were lyophilized and extracted overnight at 4° C. with 0.5M acetic acid containing 100 μg/ml pepsin (Sigma Chemical Co., St. Louis, Mo.). Samples were dried, dissolved in non-reducing SDS-gel buffer and analyzed on a 5% SDS-gel. The αl(1) and αl(111) components were resolved by delayed reduction electrophoresis (Sykes, 1976). The gels were treated with Amplify (Amersham, England), and the radiolabeled collagen visualized by autoradiography. The percentage of Type I collagen was determined using the following formula (Franceschi, 1988).

[5] = test system: human osteogenic cells (MG63, HBPC, primary osteoblasts); assay: Western analysis of bone protein expression in spheroids; conditions: each osteogenic cell type; versus serum-free cells in the absence of TGF-β1
Method: Western Analysis. The procedure used was essentially that of Towbin (1979). Samples were run on a 10% SDS-PAGE. The electrophoretically resolved proteins were transferred to nitrocellulose (Schleicher & Schuell; Keene, N.H.) and the nonspecific binding sites blocked using 5% Skim milk in TBST (10 mM Tris, 0.15M NaCl, 0.05% Tween 20, pH 7.5). The nitrocellulose membrane was incubated with primary antibodies: anti-Osteonectin (ON), anti-alkaline phosphatase, (both generous gifts of Dr. Kenneth Mann, University of Vermont) or anti-Type I collagen (Collaborative); each at 10 μg/ml in TBST) for 1 hour at room temperature, washed with TBST and treated with the secondary antibody (anti-mouse IgG-HRP conjugated; Amersham) at a 1:1000 dilution in the same buffer. The HRP/anitbody-labeled proteins were visualized by enhanced chemilluminescence (Pierce).

COc1ccc(C[C@H](N)C(=O)N[C@H]2[C@@H](O)[C@H](n3cnc4c(N(C)C)ncnc43)O[C@@H]2CO)cc1 [puromycin]
spheroid formation (effect in words) [1]: completely blocked; also recorded: completely inhibited

O=C(O)CN(CCOCCOCCN(CC(=O)O)CC(=O)O)CC(=O)O [EGTA]
spheroid formation (effect in words) [1]: completely inhibited

VEGF
increase in number of von Kossa cellular foci ([2]; VEGF 10 ng/mL): 2.5 fold
increase in number of collagen-positive and von Kossa-positive developmental foci per culture ([2]; VEGF 10 ng/mL added to LTBMC): 75–80%
increase in number of microspicules per culture ([2]; VEGF 10 ng/mL, over the first three weeks of culture): ~5 fold

TGF-β1: multifunctional cytokine of the TGF-β family, osteogenic growth factor used at 200 pM (human) or 25 pM (murine)
time to formation of three-dimensional spherical cellular condensates (cell spheroids) [3]: 24 to 48 h
increase in collagen synthesis on TGF-β1-dependent spheroid formation [4]: two to three fold increase
expression of osteonectin and alkaline phosphatase [5]: markedly increases
capacity to drive murine osteogenesis (individually) ([2]; TGF-b 25 pM, IGF 15 pM, each alone): little capacity
